Values of other authors, collected in patent US10478388B2, “Skin engaging shaving aid member comprising at least one thermally resilient sensate” (The Gillette Company, priority 2012, dated 2019).

How the values were obtained:
[1] = concentration where the cooling effect could be clearly recognized
[2] = compared to menthol at 2 ppm

Row | Compound | Cooling threshold [1] | Cooling as compared to menthol [2]
1 | CC(C)[C@@H]1CC[C@@H](C)C[C@@H]1O [Example 1-neomenthol, 1-neomenthol] | about 3,000 ppb | –
2 | CC(C)[C@@H]1CC[C@@H](C)C[C@H]1O [L-menthol] | about 800 ppb | –
3 | CC(C)[C@@H]1CC[C@@H](C)C[C@H]1C(=O)Nc1ccc(CC#N)cc1 [N-[4-(cyanomethyl)phenyl]-(1R,2S,5R)-2-isopropyl-5-methylcyclohexanecarboxamide] | – | about 10 ×
4 | CC(C)[C@@H]1CC[C@@H](C)C[C@@H]1O [d-neomenthol] | about 25,000 ppb | –
